Laboratory results published in US20080031894A1, “Beta acid based protein kinase modulation cancer treatment” (Metaproteomics, LLC, priority 2006, published 2008).
Marks after values point to notes of the source that are not given here.

Key:
adiponectin secretion [1] = assay: Adiponectin secretion in LPS/3T3-L1 adipocytes; type: cell-based, murine; conditions: LPS 100 ng/ml; for adiponectin secretion, in words: any of the doses tested
adiponectin secretion [2] = assay: Adiponectin secretion from insulin-resistant 3T3-L1 adipocytes; type: cell-based, murine
Method: 3T3-L1 cells were seeded at an initial density of 1×10^4 cells/cm^2 in 96-well plates. For two days, the cells were allowed grow to reach confluence. Following confluence, the cells were forced to differentiate into adipocytes by the addition of differentiation medium; this medium consisted of (1) 10% FBS/DMEM (high glucose); (2) 0.5 mM methylisobutylxanthine; (3) 0.5 μM dexamethasone and (4) 10 μg/ml insulin (MDI medium). From Day 3 through Day 5, the medium was changed to post-differentiation medium consisting of 10 μg/ml insulin in 10% FBS/DMEM.
Briefly, on Day 6, cells were maintained in serum-free media containing 0.5% bovine serum albumin (BSA) for three hours and then treated with 1 μg insulin/ml plus solvent or insulin plus test material. […] Twenty-four hours later, the supernatant medium was sampled for adiponectin determination.
(§1) Adiponectin Assay—The adiponectin secreted into the medium was quantified using the Mouse Adiponectin Quantikine® Immunoassay kit with no modifications (R&D Systems, Minneapolis, Minn.).
Statistical Calculations and Interpretation—All assays were preformed in duplicate. […] Differences between the doses were determined using the student's t-test without correction for multiple comparisons; the nominal five percent probability of a type I error was selected. […]

adiponectin secretion [3] = assay: Adiponectin secretion from TNFα-treated 3T3-L1 adipocytes; type: cell-based, murine; conditions: for maximum increase of adiponectin secretion from the TNFα control: 10 ng/ml TNFα
Method: 3T3-L1 cells were seeded at an initial density of 1×10^4 cells/cm^2 in 96-well plates. For two days, the cells were allowed grow to reach confluence. Following confluence, the cells were forced to differentiate into adipocytes by the addition of differentiation medium; this medium consisted of (1) 10% FBS/DMEM (high glucose); (2) 0.5 mM methylisobutylxanthine; (3) 0.5 μM dexamethasone and (4) 10 μg/ml insulin (MDI medium). From Day 3 through Day 5, the medium was changed to post-differentiation medium consisting of 10% FBS in DMEM. […] On Day 6, the supernatant medium was sampled for adiponectin determination.
as §1
Statistical Calculations and Interpretation—All assays were preformed in duplicate. […] Differences among the doses and test agents were determined using the Student's t-test without correction for multiple comparisons; the nominal five percent probability of a type I error was selected.

[4] = Non-fasting serum glucose and insulin in db/db diabetic mice, three days; type: in vivo, mouse; conditions: three consecutive days by gavage
Method: The Model—Male, C57BLKS/J m^+/m^+ Lepr^db (db/db) mice were used to assess the potential of the test materials to reduce fasting serum glucose or insulin concentrations. This strain of mice is resistant to leptin by virtue of the absence of a functioning leptin receptor.
Testing Procedure—Test substances were administered daily by gavage in 0.2% Tween-80. Serum was collected from the retroorbital sinus before the initial dose and ninety minutes after the third and final dose. Non-fasting serum glucose was determined enzymatically by the mutarotase/glucose oxidase method and serum insulin was determined by a mouse specific ELISA.

IL-6 = assay: Serum IL-6 in collagen induced arthritis murine model; type: in vivo, mouse; conditions: 10 mg/kg
[5] = test system: human PI3K-β, PI3K-γ, and PI3K-δ; assay: Effect of hops components on PI3K activity (FIG. 3); type: biochemical; conditions: 50 μg/ml
Method: Additionally examined was an Acacia nilotica heartwood extract. All compounds were tested at 50 μg/ml. The results are presented graphically as FIG. 3.

PGE2 biosynthesis = PGE2 biosynthesis in A549 pulmonary epithelial cells stimulated by mite dust allergen; type: cell-based, human; conditions: 10 μg/ml, added 60 minutes prior to mite dust allergen
Excerpt: Mite dust allergen isolation—Dermatophagoides farinae is the American house dust mite. D. farinae were raised on a 1:1 ratio of Purina Laboratory Chow (Ralston Purina, Co, St. Louis, Mo.) and Fleischmann's granulated dry yeast (Standard Brands, Inc. New York, N.Y.) at room temperature and 75% humidity. Live mites were aspirated from the culture container as they migrated from the medium, killed by freezing, desiccated and stored at 0% humidity. The allergenic component of the mite dust was extracted with water at ambient temperature. Five-hundred mg of mite powder were added to 5 ml of water (1:10 w/v) in a 15 ml conical centrifuge tube (VWR, Rochester, N.Y.), shaken for one minute and allowed to stand overnight at ambient temperature. The next day, the aqueous phase was filtered using a 0.2 μm disposable syringe filter (Nalgene, Rochester, N.Y.). The filtrate was termed mite dust allergen and used to test for induction of PGE2 biosynthesis in A549 pulmonary epithelial cells.
Cell culture and treatment—The human airway epithelial cell line, A549 (American Type Culture Collection, Bethesda, Md.) was cultured and treated as previously described in Example 6. Mite allergen was added to the culture medium to achieve a final concentration of 1000 ng/ml. Eighteen hours later, the media were sampled for PGE2 determination.

CC(=O)Oc1ccccc1C(=O)O [Aspirin]
adiponectin secretion, in words (adiponectin secretion [1]): failed to induce adiponectin secretion

CC(C)CCC1=C(O)C(C(=O)C(C)C)=C(O)C(CCC(C)C)(CCC(C)C)C1=O [Hexahydro-colupulone (HHCL)]
Adiponectin/IL-6 (adiponectin secretion [2]; 50.0 μg/ml, ratio of indexes (Table 21)): 0.60#

COc1ccc2c(c1)c(CC(=O)O)c(C)n2C(=O)c1ccc(Cl)cc1 [Indomethacin]
Maximum adiponectin stimulation (adiponectin secretion [1]; […]): 9%

CCc1ccc(CCOc2ccc(CC3SC(=O)NC3=O)cc2)nc1 (stereo not drawn) [Pioglitazone]
Maximum adiponectin stimulation (adiponectin secretion [1]; […]): 12% | Adiponectin Index (relative maximum) (adiponectin secretion [3]; 10 ng TNFα/ml, [Adiponectin]Test/[Adiponectin]TNFα control): 1.47 | maximum increase of adiponectin secretion from the TNFα control (adiponectin secretion [3]): 80% | Adiponectin Index Observed (adiponectin secretion [3]; 1.0 μg/ml, indexed to TNFα control (Table 26)): 1.80

Cc1c(C)c2c(c(C)c1O)CCC(C)(COc1ccc(CC3SC(=O)NC3=O)cc1)O2 (stereo not drawn) [Troglitazone]
Maximum adiponectin stimulation (adiponectin secretion [1]; 0.625 μg/ml): 15% | maximum increase of adiponectin secretion from the TNFα control (adiponectin secretion [3]): 51%

CC(C)CCC1=C(O)C(C(=O)C(C)C)=C(O)C(CCC(C)C)(CCC(C)C)C1=O [hexahydrocolupulone]
concentration required for half maximal adiponectin secretion (adiponectin secretion [2]; Hofstee plot slope): 3.2 µg/mL

CC(C)Cc1ccc(C(C)C(=O)O)cc1 (stereo not drawn) [ibuprofen]
Maximum adiponectin stimulation (adiponectin secretion [1]; 0.625 μg/ml): 22%

CN(C)C(=N)N=C(N)N [metformin]
serum glucose, in words [4]: decreased

C[C@]12C=CC(=O)C=C1CC[C@@H]1[C@@H]2[C@@H](O)C[C@@]2(C)[C@H]1CC[C@]2(O)C(=O)CO [prednisolone]
serum IL-6 levels, in words (IL-6): reached a statistical significance

O=C(O)c1ccccc1O [salicylic acid]
adiponectin secretion, in words (adiponectin secretion [1]): failed to induce adiponectin secretion

COc1cc(O)c(CC=C(C)C)c(O)c1C(=O)/C=C/c1ccc(O)cc1 [xanthohumol]
serum glucose, in words [4]: reduction in serum glucose | serum insulin, in words [4]: no effect on insulin | PI3K isoform effect, in words [5]: more inhibitory to PI3K-γ than to PI3K-β or PI3K-δ

Beta acids
Percent PGE2 Inhibition (PGE2 biosynthesis): 83%
